Measurements from patent publication US9133115B2 (ACHILLION PHARMACEUTICALS, INC., priority 2008, dated 2015).

These molecules were tested on HCV replicon (assay: HCV replicon replication assay (NPT ELISA) in Huh-7 replicon-containing cells). Details: Hepatitis C virus, 72 h; HCV replicon in Huh-7 cells, three days incubation; read-out: EC50.
Type: cell-based
Outline: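 Huh-7 cells carrying a bicistronic HCV replicon (HCV-IRES-neo, EMCV-IRES-driven NS3–NS5B, 3′-NTR) were seeded at 6000-7500 cells/well, grown 24 h to 60-70% confluence, then treated with graded compound concentrations. Replication was read as NPT level by capture ELISA (rabbit anti-NPTII, Eu-N1 secondary); interferon alpha served as positive control.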
Work on `C=C[C@@H]1C[C@]1(NC(=O)[C@@H]1C[C@@H](Oc2cc(-c3ccccc3)nc3ccccc23)CN1C(=O)[C@@H](CC(=O)N1CCCCC1)C(C)(C)C)C(=O)NS(=O)(=O)C1CC1` [Compound 225, (2S,4R)-1-((S)-2-tert-butyl-4-oxo-4-(piperidin-1-yl)butanoyl)-N-((1R)-1-(cyclopropyl-sulfonylcarbamoyl)-2-vinylcyclopropyl)-4-(2-phenylquinolin-4-yloxy)pyrrolidine-2-carboxamide] yielded an EC50 of less than 1 µM.
Molecule `C=C[C@@H]1C[C@]1(NC(=O)[C@@H]1C[C@@H](Oc2cc(-c3nc(C(C)C)cs3)nc3c(C)c(OC)ccc23)CN1C(=O)[C@@H](CC(=O)N1CCCCC1)C(C)(C)C)C(=O)NS(=O)(=O)C1CC1` [Compound 255, (2S,4R)-1-((S)-2-tert-butyl-4-oxo-4-(piperidin-1-yl)butanoyl)-N-((2S)-1-(cyclopropyl-sulfonylcarbamoyl)-2-vinylcyclopropyl)-4-(2-(4-isopropylthiazol-2-yl)-7-methoxy-8-methylquinolin-4-yloxy)pyrrolidine-2-carboxamide] has an EC50 of less than 1 µM.
`C=C[C@@H]1C[C@]1(NC(=O)[C@@H]1C[C@@H](Oc2cc(-c3ccccc3)nc3cc(OC)ccc23)CN1C(=O)[C@@H](CC(=O)N1CCCCC1)C(C)(C)C)C(=O)NS(=O)(=O)c1ccc(C)cc1` [Compound 69, (2S,4R)-1-((S)-2-tert-butyl-4-oxo-4-(piperidin-1-yl)butanoyl)-4-(7-methoxy-2-phenylquinolin-4-yloxy)-N-((1R,2S)-1-(p-tolylsulfonyl-carbamoyl)-2-vinyl-cyclopropyl)pyr-rolidine-2-carboxamide] gave an EC50 of less than 1 µM.
With `C=C[C@@H]1C[C@]1(NC(=O)[C@@H]1C[C@@H](Oc2cc(-c3ccccc3)nc3cc(OC)ccc23)CN1C(=O)[C@@H](CC(=O)N1CCCCC1)C(C)(C)C)C(=O)NS(=O)(=O)C1(Cl)CC1` [Compound 158, (2S,4R)-1-((S)-2-tert-butyl-4-oxo-4-(piperidin-1-yl)butanoyl)-N-((1R,2S)-1-(1-chlorocyclopropyl-sulfonyl-carbamoyl)-2-vinylcyclopropyl)-4-(7-methoxy-2-phenylquinolin-4-yloxy)pyrrolidine-2-carboxamide] the EC50 was less than 1 µM.
`C=C[C@@H]1C[C@]1(NC(=O)[C@@H]1C[C@@H](Oc2cc(-c3ccccc3)nc3cc(OC)ccc23)CN1C(=O)[C@@H](CC(=O)N1CCCCCC1)C(C)(C)C)C(=O)NS(=O)(=O)C1CC1` [Compound 77, (2S,4R)-1-((S)-4-(azepan-1-yl)-2-tert-butyl-4-oxobutanoyl)-N-((1R,2S)-1-(cyclopropyl-sulfonylcarbamoyl)-2-vinylcyclopropyl)-4-(7-methoxy-2-phenylquinolin-4-yloxy)pyrrolidine-2-carboxamide] was tested, and the EC50 was less than 1 µM.
`C=C[C@@H]1C[C@]1(NC(=O)[C@@H]1C[C@@H](Oc2cc(-c3ccccc3)nc3cc(OC)ccc23)CN1C(=O)[C@@H](CC(=O)N1CCC(F)(F)CC1)C(C)(C)C)C(=O)NS(=O)(=O)C1CC1` [Compound 119, (2S,4R)-1-((S)-2-tert-butyl-4-(4,4-difluoropiperidin-1-yl)-4-oxobutanoyl)-N-((1R,2S)-1-(cyclopropylsulfonyl-carbamoyl)-2-vinylcyclopropyl)-4-(7-methoxy-2-phenylquinolin-4-yloxy)pyrrolidine-2-carboxamide] showed an EC50 of less than 1 µM.
`C=CC1CC1(NC(=O)C1C[C@@H](Oc2cc(-c3ccccc3)nc3cc(OC)ccc23)CN1C(=O)[C@@H](CC(=O)N1CCCCC1)C1CCCCC1)C(=O)NS(=O)(=O)C1CC1` (stereo partly drawn) [Compound 53, (4R)-1-((S)-2-cyclohexyl-4-oxo-4-(piperidin-1-yl)butanoyl)-N-(1-(cyclopropyl-sulfonylcarbamoyl)-2-vinylcyclopropyl)-4-(7-methoxy-2-phenylquinolin-4-yloxy)pyrrolidine-2-carboxamide] showed an EC50 of less than 1 µM.
`C=C[C@@H]1C[C@]1(NC(=O)[C@@H]1C[C@@H](Oc2nc(-c3ccccn3)cc3c(Cl)c(OC)ccc23)CN1C(=O)[C@@H](CC(=O)N1CCCCC1)C(C)(C)C)C(=O)NS(=O)(=O)C1CC1` [Compound 243, (2S,4R)-1-((S)-2-tert-butyl-4-oxo-4-(piperidin-1-yl)butanoyl)-4-(5-chloro-6-methoxy-3-(pyridin-2-yl)isoquinolin-1-yloxy)-N-((2S)-1-(cyclopropyl-sulfonylcarbamoyl)-2-vinylcyclo-propyl)pyrrolidine-2-carboxamide] was tested, and the EC50 was less than 1 µM.
For `C=C[C@@H]1C[C@]1(NC(=O)[C@@H]1C[C@@H](Oc2cc(-c3ccccc3)nc3c(C)c(OC)ccc23)CN1C(=O)[C@@H](CC(=O)N1CCC(C(F)(F)F)CC1)C(C)(C)C)C(=O)NS(=O)(=O)C1CC1` [Compound 240, (2S,4R)-1-((S)-2-tert-butyl-4-oxo-4-(4-(trifluoro-methyl)piperidin-1-yl)butanoyl)-N-((1R)-1-(cyclopropyl-sulfonylcarbamoyl)-2-vinylcyclopropyl)-4-(7-methoxy-8-methyl-2-phenylquinolin-4-yloxy)pyrrolidine-2-carboxamide], the EC50 was less than 1 µM.
`COc1ccc2c(O[C@@H]3C[C@@H](C(=O)NC4(C(=O)NS(=O)(=O)C5CC5)CCC4)N(C(=O)[C@@H](CC(=O)N4CCCCC4)C(C)(C)C)C3)cc(-c3ccccc3)nc2c1` [Compound 97, (2S,4R)-1-((S)-2-tert-butyl-4-oxo-4-(piperidin-1-yl)butanoyl)-N-(1-(cyclopropylsulfonyl-carbamoyl)cyclo-butyl)-4-(7-methoxy-2-phenylquinolin-4-yloxy)pyrrolidine-2-carboxamide] showed an EC50 of 1 to 10 µM.
Molecule `C=C[C@@H]1C[C@]1(NC(=O)[C@@H]1C[C@@H](Oc2cc(-c3ccccc3)nc3cc(OC)ccc23)CN1C(=O)[C@@H](CC(=O)N1CCC(F)CC1)C(C)(C)C)C(=O)NS(=O)(=O)C1CC1` [Compound 82, (2S,4R)-1-((S)-2-tert-butyl-4-(4-fluoropiperidin-1-yl)-4-oxobutanoyl)-N-((1R,2S)-1-(cyclopropyl-sulfonylcarbamoyl)-2-vinylcyclopropyl)-4-(7-methoxy-2-phenylquinolin-4-yloxy)pyrrolidine-2-carboxamide] has an EC50 of less than 1 µM.
`C=C[C@@H]1C[C@]1(NC(=O)[C@@H]1C[C@@H](Oc2cc(-c3ccccn3)nc3cc(OC)ccc23)CN1C(=O)[C@@H](CC(=O)N1CCC(F)CC1)C(C)(C)C)C(=O)NS(=O)(=O)C1CC1` [Compound 218, (2S,4R)-1-((S)-2-tert-butyl-4-(4-fluoropiperidin-1-yl)-4-oxobutanoyl)-N-((1R)-1-(cyclo-propylsulfonyl-carbamoyl)-2-vinylcyclopropyl)-4-(7-methoxy-2-(pyridin-2-yl)quinolin-4-yloxy)pyrrolidine-2-carboxamide] was tested, and the EC50 was less than 1 µM.
With `C=C[C@@H]1C[C@]1(NC(=O)[C@@H]1C[C@@H](Oc2cc(-c3ccccn3)nc3cc(OC)ccc23)CN1C(=O)[C@@H](CC(=O)N1CCC(F)(F)C1)C(C)(C)C)C(=O)NS(=O)(=O)C1CC1` [Compound 214, (2S,4R)-1-((S)-2-tert-butyl-4-(3,3-difluoropyrrolidin-1-yl)-4-oxobutanoyl)-N-((1R)-1-(cyclopropyl-sulfonylcarbamoyl)-2-vinylcyclopropyl)-4-(7-methoxy-2-(pyridin-2-yl)quinolin-4-yloxy)pyrrolidine-2-carboxamide] the EC50 was less than 1 µM.
`C=C[C@@H]1C[C@]1(NC(=O)[C@@H]1C[C@@H](Oc2cc(-c3ccccc3)nc3cc(OC)ccc23)CN1C(=O)[C@@H](CC(=O)N1CCCCC1c1nc2cc(F)ccc2[nH]1)C(C)(C)C)C(=O)NS(=O)(=O)C1CC1` (stereo partly drawn) [Compound 125, (2S,4R)-1-((2S)-2-tert-butyl-4-(2-(5-fluoro-1H-benzo[d]imidazol-2-yl)piperidin-1-yl)-4-oxobutanoyl)-N-((1R,2S)-1-(cyclo-propylsulfonyl-carbamoyl)-2-vinylcyclopropyl)-4-(7-methoxy-2-phenylquinolin-4-yloxy)pyrrolidine-2-carboxamide] showed an EC50 of less than 1 µM.
`C=C[C@@H]1C[C@]1(NC(=O)[C@@H]1C[C@@H](OC(=O)Nc2ccccc2C(=O)OCC)CN1C(=O)[C@@H](CC(=O)N1CCCCC1)C(C)(C)C)C(=O)NS(=O)(=O)C1CC1` [Compound 94] showed an EC50 of less than 1 µM.
For `C=C[C@@H]1C[C@]1(NC(=O)[C@@H]1C[C@@H](Oc2cc(-c3ccccc3)nc3cc(OC)ccc23)CN1C(=O)[C@@H](CC(=O)n1c(C2CCCCN2)nc2cc(F)ccc21)C(C)(C)C)C(=O)NS(=O)(=O)C1CC1` (stereo partly drawn) [Compound 126, (2S,4R)-1-((2S)-2-tert-butyl-4-(5-fluoro-2-(piperidin-2-yl)-1H-benzo[d]imidazol-1-yl)-4-oxobutanoyl)-N-((1R,2S)-1-(cyclo-propylsulfonyl-carbamoyl)-2-vinylcyclopropyl)-4-(7-methoxy-2-phenylquinolin-4-yloxy)pyrrolidine-2-carboxamide], the EC50 was less than 1 µM.
`C=C[C@@H]1CC1(NC(=O)[C@@H]1C[C@@H](Oc2cc(-c3nc(C(C)C)cs3)nc3c(C)c(OC)ccc23)CN1C(=O)[C@@H](CC(=O)N1CCC(C(F)(F)F)CC1)C(C)(C)C)C(=O)NS(=O)(=O)C1CC1` (stereo in doubt) [Compound 250, (2S,4R)-1-((S)-2-tert-butyl-4-oxo-4-(4-(trifluoro-methyl)piperidin-1-yl)butanoyl)-N-((S)-1-(cyclopropyl-sulfonylcarbamoyl)-2-vinylcyclopropyl)-4-(2-(4-isopropylthiazol-2-yl)-7-methoxy-8-methylquinolin-4-yloxy)pyrrolidine-2-carboxamide] was tested, and the EC50 was less than 1 µM.
`C=C[C@@H]1C[C@]1(NC(=O)[C@@H]1C[C@@H](Oc2cc(-c3ccccc3)nc3c(C)c(OC)ccc23)CN1C(=O)[C@@H](CC(=O)N1CCCCC1)C(C)(C)C)C(=O)NS(=O)(=O)C1CC1` [Compound 239] gave an EC50 of less than 1 µM.
With `C=C[C@@H]1C[C@]1(NC(=O)[C@@H]1C[C@@H](NC(=O)c2cc(-c3ccccc3)nc3ccccc23)CN1C(=O)[C@@H](CC(=O)N1CCCC(F)(F)C1)C(C)(C)C)C(=O)NS(=O)(=O)C1CC1` [Compound 202, N-((3R,5S)-1-((S)-2-tert-butyl-4-(3,3-difluoropiperidin-1-yl)-4-oxobutanoyl)-5-((1R,2S)-1-(cyclo-propylsulfonyl-carbamoyl)-2-vinyl-cyclopropyl-carbamoyl)pyrrolidin-3-yl)-2-phenylquinoline-4-carboxamide] the EC50 was less than 1 µM.
